Assay results taken from patent US20110065715A1, “Nogo Receptor Binding Small Molecules to Promote Axonal Growth” (Yale University, priority 2007, published 2011).
Entries after “also recorded” stand apart in the source; their conditions may differ. Read-outs that look alike come from different tables or passages of the source.

Assays:
[1] = system: Nogo receptor:Nogo ligand (Nogo 66) interaction; assay: DELFIA assay of Fc-NgR:Ng66 interaction; assay type: binding
Method: ELISA and DELFIA assays were then performed to evaluate the ability of the small molecules that were identified as “hits” in the AlphaScreens to inhibit the interaction of NgR and Nogo ligand. In the DELFIA Assay, 96 well streptavidin coated plates were blocked overnight with PBS and 10 mg/ml bovine serum albumin (BSA) (200 μl). The wells were then coated for 1.5 hours with sonicated HBH (Hanks Balanced Salt Solution/0.1 M HEPES/1 mg/ml BSA) containing Nogo 66 (B66) (0.5 μl of 10 mM/10 ml HBH) (50 μl) and then washed 4 times with 200 μl of HBH. The solution containing the inhibitor compound (50 μl in HBH) was added along with 1% FcNgR solution in HBH (50 μl), and the solution was incubated for 2 hours. The wells were washed 5 times with HBH. Alkaline phosphatase (AP) conjugated mouse anti-rat antibody (1:2500) was added and the wells were then washed 5 times with DELFIA wash buffer. The Europium (Eu) anti-mouse antibody was then added in Perlin Elmer Assay, buffer (100 μg/ml) (150 μl) and the wells were again washed 5 times with DELFIA wash buffer. The enhancer solution was added (100 μl) and the plate was read with the Perkin Elmer Victor 5 instrument 15 minutes later. (FIG. 10B) The results from the DELFIA assay indicate that compounds HTS08871, KM08071, and 503749, as well as the positive control, NEP33, inhibit the Nogo receptor:Nogo ligand (Nogo 66) interaction. (FIGS. 10D and 11A-C).

[2] = system: embryonic day 13 or 14 chick DRG neurons; assay: Neurite outgrowth assay, E13/E14 chick DRG neurons; assay type: cell-based, chicken; conditions: 20 μM
Method: To test the ability of the “hit” compounds to promote neurite outgrowth, a neurite outgrowth assay was performed using each of these compounds. Dorsal root ganglia (DRG) were removed from chicken embryos at embryonic day 13 or 14, dissociated by trituration after 30 min incubation in 0.5% collagenase, and plated on laminin-coated 96-well tissue culture plates in DMEM with 10% fetal bovine serum containing 20 μM of the test compound. After two to four hours of incubation, the cells were fixed in 4% formaldehyde in phosphate buffered saline (PBS), washed in PBS, and blocked for 1 hour in PBS with 0.1% triton X-100 and 10% goat serum. The cells were incubated in rabbit anti-beta-3-tubulin (1:500) in PBS overnight and then washed 3 times with PBS. The cells were then incubated in Alexa-fluor 488 goat anti-rabbit IgG (1:500) for 6 hrs, washed with PBS, and imaged at 10× with an ImagExpress automated microscope (Molecular Devices, Inc.). Neurite outgrowth was measured with AcuityExpress software (Molecular Devices, Inc.).

[3] = system: postnatal day 15 (P15) wild type mouse DRG neurons; assay: Neurite outgrowth, P15 wild type mouse DRG neurons; assay type: cell-based; conditions: 24 hours
Method: (§1) However, the inhibition of neurite outgrowth by the compound S is believed to be independent of its interaction with the Nogo receptor-Nogo ligand complex. Dorsal root ganglia (DRG) were removed from wild type or NgR1 knockout mouse pups at postnatal day 15, dissociated by trituration after 30 min incubation in 0.5% collagenase, plated on laminin-coated 96-well tissue culture plates in DMEM with 10% fetal bovine serum and B27. After 24 hours, cells were fixed in 4% formaldehyde in phosphate buffered saline (PBS), washed in PBS, and blocked for 1 hour in PBS with 0.1% triton X-100 and 10% goat serum. The cells were then incubated in rabbit anti-beta-3-tubulin (1:500) in PBS overnight. After washing 3 times, the cells were incubated in Alexa-fluor 488 goat anti-rabbit IgG (1:500) for 6 hrs, washed with PBS, and imaged at 10× with an ImagExpress automated microscope (Molecular Devices, Inc.). Neurite outgrowth was measured with AcuityExpress software (Molecular Devices, Inc.).

[4] = system: postnatal day 15 (P15) NgR1 knockout mouse DRG neurons; assay: Neurite outgrowth, P15 NgR1 knockout mouse DRG neurons; assay type: cell-based; conditions: 24 hours
Method: as §1

inhibition of Nogo receptor:Nogo 66 interaction signal, DELFIA [1]: dose dependent signal inhibition | inhibition of Nogo receptor:Nogo 66 interaction signal, DELFIA ([1]; listed as 503749): inhibit
Structure (SMILES): N#Cc1ccc(CN2C(=O)CSC2=S)cc1 [S, 4-[(4-oxo-2-thioxo-1,3-thiazolan-3-yl)methyl]benzonitrile]
neurite outgrowth compared to the DMSO control ([2]; E13 or E14 chick DRG, two to four hours): inhibited neurite outgrowth | basal neurite outgrowth, E14 chick DRG neurons ([2]; E14): no basal neurite outgrowth | neurite outgrowth, wild type mice [3]: inhibits neurite outgrowth; also recorded: inhibitory effect | neurite outgrowth, NgR1 knockout mice [4]: inhibits neurite outgrowth; also recorded: inhibitory effect
